Experimental data reported in US11155551B2, “Nicotinic acetylcholine receptor silent agonists” (University of Florida Research Foundation, Inc., priority 2015, dated 2021).

Key:
human α7 nAChR = molecular target: T1, human α7 nAChR (Homo sapiens, UniProt P36544); test: Two-electrode voltage clamping of human α7 nAChR expressed in Xenopus oocytes (net-charge / peak current relative to 60 μM ACh); format: cell-based; conditions: for Potentiated response: 30 μM test compound + 10 μM PNU-120596 co-application; for Potentiated response / Relative response: relative to 60 μM ACh control, mean ± SEM, N ≥ 4; for Relative response: net-charge response to 30 μM test compound alone; for functional classification at α7 nAChR: 30 μM alone and with 10 μM PNU-120596, partial agonist = net charge > 1/10th ACh control
T1 construct: expressed in transfected cells; host or cells: Xenopus oocytes
T1 sequence (P36544 23-502): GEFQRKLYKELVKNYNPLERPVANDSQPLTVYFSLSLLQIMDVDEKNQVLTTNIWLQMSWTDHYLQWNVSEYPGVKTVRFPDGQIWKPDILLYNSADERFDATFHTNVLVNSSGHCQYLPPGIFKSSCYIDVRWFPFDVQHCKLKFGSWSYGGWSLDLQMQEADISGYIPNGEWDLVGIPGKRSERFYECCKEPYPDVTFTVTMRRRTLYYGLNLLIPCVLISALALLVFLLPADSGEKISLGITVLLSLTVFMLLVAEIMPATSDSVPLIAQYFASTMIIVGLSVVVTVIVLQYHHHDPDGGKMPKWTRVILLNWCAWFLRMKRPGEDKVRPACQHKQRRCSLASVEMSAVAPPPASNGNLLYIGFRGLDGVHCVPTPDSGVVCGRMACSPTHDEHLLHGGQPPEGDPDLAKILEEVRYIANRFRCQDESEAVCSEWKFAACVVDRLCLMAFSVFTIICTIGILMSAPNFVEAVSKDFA
Protocol: Electrophysiology: The panel of compounds synthesized was assayed using human α7 nAChR expressed in Xenopus oocytes and two-electrode voltage clamping. The partial agonism activity was evaluated, quantified as net-charge for 30 μM applications of compounds, measured relative to the control response to applications of 60 μM ACh. The induction of PAM-sensitive desensitization was detected as the net-charge responses when compounds were co-applied with the PAM PNU-120596 (30 μM compound+10 μM PNU-120596), measured relative to responses to 60 μM ACh applied alone. […] It is a unique property of α7 orthosteric agonist-induced currents that they vary systematically in the relationship between peak current and net charge as a function of the effective concentration applied (Papke & Papke (2002) Br. J. Pharm. 137: 49-61; Papke & Thinschmidt (1998) Neurosci. Let. 256: 163-166). This was due to the concentration-dependent desensitization of the receptors, which is likely to be associated with high levels of agonist binding site occupancy (Williams et al., (2011) J. Gen. Physiol. 137: 369-384) and is observed even when agonists are rapidly applied to small cells (Williams et al., (2012) Mol. Pharmacol. 82: 746-759) or acutely dissociated neurons (Uteshev et al., (2002) Brain Res. 948: 33-46). The control ACh concentration used for these experiments is roughly the EC80 for the net-charge responses.
By normalizing both the peak currents and net-charge measurements of the drug responses at the probe concentration of 30 μM (FIG. 3B) to those of the ACh control, the relationship between the probe concentration and the EC for each of the drugs was estimated (Papke, R. L. (2005) Life Sci.). At a concentration where the ratio of the normalized measures equaled one, the drug would be at the same effective concentration as 60 μM ACh.
Electrophysiology: New compounds were assayed for activity with the α7 nAChR expressed in Xenopus oocytes using two-electrode voltage clamping as previously described in Papke et al., (2014) J. Pharmacol. Experimental Therap. 350: 665-680, incorporated herein by reference in its entirety, and compared to responses evoked by 60 μM Ach (FIGS. 5 and 6). The compound set was assayed at a concentration of 30 μM to provide a standard comparison benchmark.
Based on earlier experience this concentration is high enough to provide an observable response and low enough to avoid possible complications such as channel block. The net-charge response for each compound application is reported relative to those for ACh control applications. Data were expressed as the mean ±S.E.M. from at least four oocytes for each experiment and were plotted by Kaleidagraph (Abelbeck Software, Reading, Pa.).

α3β4 nAChR = α3β4 nAChR (Homo sapiens, UniProt P30926+P32297); test: Receptor subtype specificity: α3β4 nAChR activation / antagonism; format: cell-based; conditions: 100 μM
Sequence of α3β4 nAChR (P32297 32-505): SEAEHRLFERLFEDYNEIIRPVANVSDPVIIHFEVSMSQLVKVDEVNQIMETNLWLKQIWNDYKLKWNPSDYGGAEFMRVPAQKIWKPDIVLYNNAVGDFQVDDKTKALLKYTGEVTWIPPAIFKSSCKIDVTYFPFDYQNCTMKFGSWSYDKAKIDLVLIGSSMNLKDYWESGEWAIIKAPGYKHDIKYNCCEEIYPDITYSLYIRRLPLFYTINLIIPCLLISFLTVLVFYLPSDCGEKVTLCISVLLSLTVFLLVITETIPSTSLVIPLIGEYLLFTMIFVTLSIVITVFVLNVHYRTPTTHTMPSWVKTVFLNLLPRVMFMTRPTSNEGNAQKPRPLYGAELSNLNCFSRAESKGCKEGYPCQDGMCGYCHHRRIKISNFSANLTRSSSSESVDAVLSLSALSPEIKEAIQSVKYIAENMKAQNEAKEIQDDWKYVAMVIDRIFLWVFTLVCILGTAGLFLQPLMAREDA
Sequence of α3β4 nAChR (P30926 22-498): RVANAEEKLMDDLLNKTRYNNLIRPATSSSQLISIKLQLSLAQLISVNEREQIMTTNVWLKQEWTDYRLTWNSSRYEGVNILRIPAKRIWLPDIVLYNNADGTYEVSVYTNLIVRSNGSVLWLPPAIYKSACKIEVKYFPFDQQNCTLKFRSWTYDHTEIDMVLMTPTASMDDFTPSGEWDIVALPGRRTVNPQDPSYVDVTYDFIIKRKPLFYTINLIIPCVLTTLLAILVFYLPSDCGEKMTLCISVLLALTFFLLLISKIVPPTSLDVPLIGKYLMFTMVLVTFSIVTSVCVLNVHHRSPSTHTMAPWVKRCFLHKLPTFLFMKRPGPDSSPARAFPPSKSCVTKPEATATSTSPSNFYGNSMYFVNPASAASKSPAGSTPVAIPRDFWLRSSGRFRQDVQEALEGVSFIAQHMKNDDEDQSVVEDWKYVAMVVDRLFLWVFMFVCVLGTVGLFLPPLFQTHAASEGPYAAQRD

α4β2 nAChR = α4β2 nAChR (Homo sapiens, UniProt P17787+P43681); test: Receptor subtype specificity: α4β2 nAChR activation / antagonism; format: cell-based; conditions: for antagonist activity at α4β2: 100 μM
Sequence of α4β2 nAChR (P43681 29-627 limits assumed): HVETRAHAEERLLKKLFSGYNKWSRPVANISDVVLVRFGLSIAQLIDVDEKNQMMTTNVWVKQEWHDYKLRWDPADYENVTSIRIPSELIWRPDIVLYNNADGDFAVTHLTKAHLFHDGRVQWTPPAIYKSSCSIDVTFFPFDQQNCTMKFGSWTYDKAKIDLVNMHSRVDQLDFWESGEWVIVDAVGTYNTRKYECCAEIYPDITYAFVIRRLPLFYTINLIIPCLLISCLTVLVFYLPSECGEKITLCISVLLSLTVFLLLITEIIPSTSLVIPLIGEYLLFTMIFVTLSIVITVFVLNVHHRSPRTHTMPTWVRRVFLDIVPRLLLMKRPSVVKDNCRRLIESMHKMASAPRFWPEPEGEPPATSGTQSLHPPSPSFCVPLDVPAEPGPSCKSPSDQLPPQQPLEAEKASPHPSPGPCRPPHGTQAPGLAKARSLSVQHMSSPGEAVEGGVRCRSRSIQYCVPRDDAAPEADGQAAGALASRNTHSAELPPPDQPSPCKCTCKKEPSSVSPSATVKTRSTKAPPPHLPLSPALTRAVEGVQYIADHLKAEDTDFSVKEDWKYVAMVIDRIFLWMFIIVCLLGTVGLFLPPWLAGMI
Sequence of α4β2 nAChR (P17787 26-502): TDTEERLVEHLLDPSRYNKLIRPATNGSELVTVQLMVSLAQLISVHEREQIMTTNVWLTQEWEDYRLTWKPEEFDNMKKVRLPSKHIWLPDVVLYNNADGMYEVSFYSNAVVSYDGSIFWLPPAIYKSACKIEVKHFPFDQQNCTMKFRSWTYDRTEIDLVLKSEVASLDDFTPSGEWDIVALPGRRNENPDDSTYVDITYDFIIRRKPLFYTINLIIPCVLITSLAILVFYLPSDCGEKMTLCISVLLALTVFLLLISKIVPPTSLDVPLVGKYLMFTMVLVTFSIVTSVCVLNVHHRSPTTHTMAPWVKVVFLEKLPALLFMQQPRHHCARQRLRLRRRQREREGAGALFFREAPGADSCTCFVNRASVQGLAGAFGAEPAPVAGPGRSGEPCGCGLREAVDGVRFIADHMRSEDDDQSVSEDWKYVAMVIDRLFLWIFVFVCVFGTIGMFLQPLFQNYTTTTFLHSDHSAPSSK

mouse pain models = conditions: formalin- and acetic acid-induced nociceptive conditions, chronic constrictive nerve injury; cited from earlier work
[1] = test system: LPS-stimulated secretion of TNF-α in rat cultured microglia; conditions: cited from earlier work

SMILES	Potentiated response (human α7 nAChR)	Relative response (human α7 nAChR)	melting point	functional classification at α7 nAChR (human α7 nAChR)	antagonism of α3β4 (α3β4 nAChR)	PAM-dependent response compared to the parent unsubstituted diEPP (human α7 nAChR; co-application with PNU-120596)	activation / partial agonism of α4β2 nAChR (α4β2 nAChR)	antagonist activity at α4β2 (α4β2 nAChR)	PAM-dependent currents relative to ACh (human α7 nAChR; co-application with PNU-120596, meta-substituted series)	antinociceptive activity (mouse pain models)	suppression of LPS-stimulated secretion of TNF-α [1]
CCN1CCN(c2ccc(C(F)(F)F)cc2)CC1 [Compound 1n, 1-ethyl-4-(4-(trifluoromethyl)phenyl)piperazine]	1.4 ± 0.	0.000 ± 0.004	56.3 to 56.5 °C								
CCN1CCN(c2ccc(F)cc2)CC1 [Compound 1r, 1-ethyl-4-(4-fluorophenyl)piperazine]	0.0 ± 0.0	0.000 ± 0.003	30 to 30.5 °C								
CC[N+]1(CC)CCN(c2ccc(C)cc2)CC1.[I-] [Compound 2a, 1,1-diethyl-4-p-tolylpiperazin-1-ium iodide]	3.6 ± 2.0	0.011 ± 0.003	147.4 to 148.8 °C	candidate silent agonists							
CC[N+]1(CC)CCN(c2cccc(C)c2)CC1.[I-] [Compound 2d, 1,1-diethyl-4-m-tolylpiperazin-1-ium iodide]	0.2 ± 0.1	0.001 ± 0.000	144 to 145 °C	no significant activity as either partial agonists or as silent agonists							
CC[N+]1(CC)CCN(c2cccc(OC)c2)CC1.[I-] [Compound 2g, 1,1-diethyl-4-(3-methoxyphenyl)piperazin-1-ium iodide]	0.6 ± 0.2	0.011 ± 0.011		no significant activity as either partial agonists or as silent agonists	significant antagonism	50%					
CC[N+]1(CC)CCN(c2ccc(C(F)(F)F)cc2)CC1.[I-] [Compound 2n, 1,1-diethyl-4-(4-(trifluoromethyl)phenyl)piperazin-1-ium iodide]	61.8 ± 7.7	0.032 ± 0.003		candidate silent agonists			neither to be partial agonists	nor to have significant antagonist activity			
CC[N+]1(CC)CCN(c2cccc(Br)c2)CC1.[I-] [Compound 2p, 4-(3-bromophenyl)-1,1-diethylpiperazin-1-ium iodide]	10.0±1.7	0.040 ± 0.006		candidate silent agonists			neither to be partial agonists	nor to have significant antagonist activity	9.98 fold		
O=C(c1ccc(-c2cccc(C(F)(F)F)c2)o1)N1CCN2CCC1CC2 [NS-6740, 1,4-diazabicyclo[3.2.2]nonan-4-yl(5-(3-(trifluoromethyl)phenyl)furan-2-yl) methanone]										showed antinoceptive activity	more efficacious than some agonists (including choline)
